This is an account of results in patent US9567336B2, “Conjugated TLR7 and/or TLR8 and TLR2 agonists” (CAYLA, priority 2012, dated 2017).

The test system of the test is NF-κB in RAW-Blue™ Cells (RAW 264.7, endogenous TLR7 and TLR2). The experiment in a line: RAW-Blue Cells NF-κB/AP-1 inducible SEAP reporter assay. In kind it is cell-based, mouse. As to conditions: murine monocytic macrophage cell line RAW 264.7, 24 hours, OD at 655 nm; FIGS. 5A, 5B. As for the experimental part:
Some conjugated compounds of the invention were tested for their ability to activate TLR7 and TLR2 receptor signaling. Cell-based assays were carried out using TLR7 and TLR2 reporter cell lines (InvivoGen). The reporter cell lines are engineered HEK293 cells, a human embryonic kidney cell line (ATCC, CRL-1573) that stably express either murine TLR7 (HEK-Blue™ mTLR7) or human TLR7 (HEK-Blue™ hTLR7) or murine TLR2 (HEK-Blue™ mTLR2) or human TLR2 (HEK-Blue™ hTLR2) with an NF-κB-inducible secreted embryonic alkaline phosphatase (SEAP) as the reporter gene. The SEAP reporter gene is placed under the control of the NF-κB and AP-inducible promoter. Stimulation with the corresponding TLR ligand activates NF-κB and AP-1, which induces the production of SEAP. Detection of SEAP is measured following culturing cells in HEK-Blue™ Detection media (InvivoGen). HEK-Blue™ Detection contains a SEAP substrate, which upon hydrolysis by SEAP produces a colorimetric change allowing for detection of SEAP as the protein is secreted. […] These assays were carried out using RAW-Blue™ Cells (InvivoGen), derived from RAW 264.7 mouse leukemic monocytic macrophage cell line (ATCC, CRL 2278) stably overexpressing a NF-κB/AP-1 inducible SEAP reporter constructs.
To perform the assay, cells were seeded on 96 well microliter plates at 50,000 or 100,000 cells per well for HEK-Blue™ Cells and RAW-Blue™ Cells respectively, and cultured at 37° C. in the presence of the conjugated compounds. The conjugated compounds were prepared as follows: First, stock solutions of the small molecule conjugated compounds of the invention were prepared in ethanol or water to a concentration of 10 mg/ml. A working dilution of the conjugated TLR7-TLR2 small molecules was made up in water and added to cells at a final range of concentrations from 10 μg/mL to 10 pg/ml. The working dilutions of the conjugated TLR7-TLR2 small molecules as the stated concentrations were directly added to the reporter cell lines and incubated at 37° C. for 24 hours. After 24 hours of incubation, the effect on reporter gene activity was determined by reading the OD at 655 nm using iMark™ Microplate Reader (BIO-RAD).
The conjugated compounds were tested alone for their ability to specifically activate TLR7 and TLR2, alongside the known TLR7 activators R848 or CL264 (InvivoGen) and the TLR2 agonists Pam2CSK4 or Pam3CSK4 (InvivoGen). The specificity of the TLR activity was determined by use of reporter cell lines to the other TLRs (data not shown). […] The molecules show a tendency to activate mouse TLR7 with greater sensitivity than human TLR7. […] Furthermore, dose-dependent responses of the conjugated compounds indicate significant TLR activities of TLR7 and TLR2 compared to the corresponding controls.
A general note: A reporter such as luciferase makes a cellular process visible.

Take `CCCCCCCCCCCCCCCC(=O)OCC(CSC[C@H](N)C(=O)Nc1ccc(Cn2c(O)nc3c(N)nc(NCCCC)nc32)cc1)OC(=O)CCCCCCCCCCCCCCC` (mixture of isomers) [CL401, (R)-3-(2-amino-3-(4-((6-amino-2-(butylamino)-8-hydroxy-9H-purin-9-yl)methyl)phenylamino)-3-oxopropylthio)propane-1,2-diyl dipalmitate]: the “induction of NF-κB in RAW-Blue cells” value was “activate NF-κB”.
